Measured values published in US6861432B2, “Piperazine derivatives that destabilize androgen receptors” (Schering Aktiengesellschaft, priority 2001, dated 2005).

Legend:
LNCaP cells = experiment: Model 2: Inhibition of the proliferation of LNCaP cells (crystal violet assay; antagonism with 0.1 nM R1881, agonism without); type: cell-based, human
MaTu cells = experiment: Model 3: Proliferation of non-prostate cells, MaTu; type: cell-based, human; settings: 10 μM, 3-day treatment; percent of cell growth of solvent control
Experimental: (§1) To examine the growth-inhibiting action of test substances in cells that are not of prostatic origin, MaTu cells, MaTu/Adr cells, HaCaT cells and A431 cells were treated with test substances, whereby
(§2) Depending on the cell line, 1000-4000 cells/well were grown in RPMI 1640 medium (A431; MaTu and MaTu/Adr) or DMEM/HAM'SF12 medium (HaCaT) without phenol red with 2 mmol of L-glutamine and 10% CCS, and after a 24-hour incubation, they were treated with various concentrations of test substances diluted in culture medium. After a 3-day treatment period, the number of cells was determined by crystal violet assay, as in Model 2. The solvent control contained 0.1% ethanol.
(§3) The substances were tested at a concentration of 10 μM, and the data correspond to the proportion, in percent, of the cell growth of the solvent control. It turns out that the test substances exerted no inhibitory action on the four different cell lines or, in individual cases, only a slight inhibitory action.

MaTu/Adr cells = experiment: Model 3: Proliferation of non-prostate cells, MaTu/Adr; type: cell-based, human; settings: 10 μM, 3-day treatment, percent of cell growth of solvent control
Experimental: as §1, §2, §3

A431 cells = experiment: Model 3: Proliferation of non-prostate cells, A431; type: cell-based, human; settings: 10 μM, 3-day treatment, percent of cell growth of solvent control
Experimental: as §1, §2, §3

HaCaT cells = experiment: Model 3: Proliferation of non-prostate cells, HaCaT; type: cell-based, human; settings: 10 μM, 3-day treatment, percent of cell growth of solvent control
Experimental: as §1, §2, §3

seminal vesicles = experiment: Model 4: Antiandrogenic action on testosterone-stimulated growth of accessory sexual glands of castrated mice; type: in vivo; settings: testosterone propionate 0.03 mg/mouse, test substance 2 × 30 mg/kg s.c., 7 days, CPA 30 mg/kg s.c., bicalutamide from preceding tests
Experimental: The function and the size of accessory sexual glands (prostate and seminal vesicles) depend on androgens. In castrated animals, a growth of these (organs is induced by androgen administration. The simultaneous treatment with antiandrogens inhibits this growth, depending on the dose.
To examine the test substances, the mice were castrated. The treatment with testosterone propionate (0.03 mg/mouse) and the test substances (formulated 2×daily 30 mg/kg s.c. in benzyl benzoate-castor oil (10:90)) was on the same day. The treatment was carried out over 7 days and at the end of the test, the weights of the seminal vesicles and prostates were determined. The inhibition, in percent, of the seminal vesicle growth was calculated relative to the control groups (with and without testosterone). As a reference substance, cyproterone acetate (30 mg/kg s.c.) was used.

LNCaP prostate cancers = experiment: Model 5: Growth of human prostate cancer xenografts in vivo, LNCaP; settings: hairless mice with testosterone pellets, 2 × daily s.c. 30 mg/kg, FIG. 1
Excerpt: (§4) In this invention, the action of Example 117 according to the invention: 4-[2,5-dihydro-3-methyl-4-[4-[4-(methylsulfonyl)piperazin-1-yl]butyl]-2,5-dioxo-1H-pyrrol-1-yl]-2-(trifluoromethyl)benzonitrile on the tumor growth in vivo was studied by means of mouse-xenograft modules, in which the compound according to the invention was continuously administered subcutaneously.
(§5) The CWR22 tumor model [M. A. Wainstein, F. He, D. Robinson, H. J. Kung, S. Schwartz, J. M. Giaconia, N. L. Edgehouse, T. P. Pretlow, D. R. Bodner, E. D. Kursh, Cancer Res. 1994, 1; 54(23), 6049-52] is a hormone-dependent human prostate carcinoma model. The tumor model was established and further propagated by “scrial passaging” of prostate cancer tissue, which was removed during an OP in immunodeficient hairless mice. The androgen-dependent LNCaP prostate cancer model was also established from a patient tumor. This tumor model grows both in cell culture and as a xenotransplant on immunodeficient mice (Culig, Hoffman Brit. J. Cancer, 1999, 242-251). For therapy tests, 6-week-old male hairless mice (NMRI mice, M&B, Bornholdtgard, Denmark) were supplemented with testosterone pellets (12.5 mg, 90-day release; IRA, Sarasota, Fla.). Either LNCaP cells (1.5×10^6 cells) or small CWR22 tumor fragments (2×2 mm) were implanted subcutaneously in the left flank of the animals. After the tumors reached a size of 20-25 mm^2, the treatment with the invention substance was begun. [M. A. Wainstein, F. He, D. Robinson, H. J. Kung, S. Schwartz, J. M. Giaconia, N. L. Edgehouse, T. P. Pretlow, D. R. Bodner, E. D. Kursch, Cancer Res. 1994, 1; 54(23), 6049-52].

CWR22 prostate cancers = experiment: Model 5: Growth of human prostate cancer xenografts in vivo, CWR22; settings: hairless mice with testosterone pellets, 2 × daily s.c. 30 mg/kg, FIG. 2
Excerpt: as §4, §5

androgen receptor = target: T1, androgen receptor (Homo sapiens, UniProt P10275, T878A); experiment: cell-based; settings: LNCaP, 48 h
T1 construct: 2*10^6 LNCaP cells in 6 ml of RPMI 1640 without phenol red are grown; endogenous in cells; host or cells: LNCaP (human prostate cell line)
T1 sequence (P10275 1-920 T878A): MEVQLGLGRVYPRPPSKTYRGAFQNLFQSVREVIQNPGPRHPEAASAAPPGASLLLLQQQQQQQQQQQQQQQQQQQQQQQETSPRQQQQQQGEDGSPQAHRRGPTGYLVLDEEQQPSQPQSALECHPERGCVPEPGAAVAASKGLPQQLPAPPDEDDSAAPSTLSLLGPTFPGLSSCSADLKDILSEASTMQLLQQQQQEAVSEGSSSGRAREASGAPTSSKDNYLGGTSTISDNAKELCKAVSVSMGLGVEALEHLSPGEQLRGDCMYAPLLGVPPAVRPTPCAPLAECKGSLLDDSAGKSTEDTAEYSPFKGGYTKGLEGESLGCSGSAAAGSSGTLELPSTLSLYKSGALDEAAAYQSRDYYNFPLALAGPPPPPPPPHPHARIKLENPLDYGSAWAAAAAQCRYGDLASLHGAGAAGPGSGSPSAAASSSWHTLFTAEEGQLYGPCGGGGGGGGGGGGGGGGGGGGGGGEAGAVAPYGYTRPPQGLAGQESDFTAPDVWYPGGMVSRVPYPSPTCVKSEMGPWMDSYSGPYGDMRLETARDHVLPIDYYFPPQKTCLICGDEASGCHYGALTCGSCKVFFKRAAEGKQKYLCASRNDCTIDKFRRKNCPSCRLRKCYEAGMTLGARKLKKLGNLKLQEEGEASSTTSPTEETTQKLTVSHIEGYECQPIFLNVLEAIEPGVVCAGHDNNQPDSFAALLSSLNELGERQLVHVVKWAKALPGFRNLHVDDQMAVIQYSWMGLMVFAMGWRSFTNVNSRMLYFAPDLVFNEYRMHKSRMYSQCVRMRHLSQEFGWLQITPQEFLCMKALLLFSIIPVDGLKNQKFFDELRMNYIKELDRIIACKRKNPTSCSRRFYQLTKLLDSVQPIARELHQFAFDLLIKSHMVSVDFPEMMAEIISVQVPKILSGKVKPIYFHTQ

[1] = listed as invention substance, 30 mg/kg
[2] = listed as substance B, 30 mg/kg

IC50 (LNCaP cells; Homo sapiens, LNCaP proliferation in the presence of 0.1 nM R1881, 7-8 days, read-out: IC50 [10^−7 M]) [nM]	SMILES	inhibition at 1 µM (LNCaP cells; Homo sapiens, LNCaP, LNCaP proliferation, 1 μM substance, compared to cell growth in the presence of 0.1 nM R1881) [%]	% Inhibition at 1 μM (LNCaP cells; LNCaP proliferation, 1 μM substance, compared to cell growth in the presence of 0.1 nM R1881) [%]	Proliferation in the Cell Line MaTu (MaTu cells) [%]	Proliferation in the Cell Line MaTu/Adr (MaTu/Adr cells) [%]	Proliferation in the Cell Line MaTu/Adr (MaTu/Adr cells; listed as bicalutamide)	Proliferation in the Cell Line A431 (A431 cells) [%]	Proliferation in the Cell Line A431 (A431 cells; listed as bicalutamide)	Proliferation in the Cell Line HaCaT (HaCaT cells) [%]	Proliferation in the Cell Line HaCaT (HaCaT cells; listed as bicalutamide)	% Inhibition of the MSB Growth (seminal vesicles) [%]	growth inhibition of LNCaP prostate cancers (LNCaP prostate cancers)	growth inhibition of CWR22 prostate cancers (CWR22 prostate cancers)	remaining activity at 1 µM (androgen receptor; read-out: AR Content [%] At 1 μM) [%]	remaining activity at 10 µM (androgen receptor; read-out: AR Content [%] At 10 μM) [%]	growth inhibition of LNCaP prostate cancers (LNCaP prostate cancers; [1])	growth inhibition of LNCaP prostate cancers (LNCaP prostate cancers; [2])	growth inhibition of CWR22 prostate cancers (CWR22 prostate cancers; [1])	growth inhibition of CWR22 prostate cancers (CWR22 prostate cancers; [2])
380	CC(O)(CS(=O)(=O)c1ccc(F)cc1)C(=O)Nc1ccc(C#N)c(C(F)(F)F)c1 (centres unmarked) [Bicalutamide, N-[4-cyano-3-(trifluoromethyl)phenyl]-3-[(4-fluorophenyl)sulfonyl]-2-hydroxy-2-methylpropanamide, reference compound]	85	84.6	97 ± 3	84 ± 6	slight inhibition	89 ± 7	slight inhibition	92 ± 3	slight inhibition	86	growth inhibition	growth inhibition	–	–	–	–	–	–
–	CC1=C(CCCCN2CCN(S(C)(=O)=O)CC2)C(=O)N(c2ccc(C#N)c(C(F)(F)F)c2)C1=O [Example 117, 4-[2,5-Dihydro-3-methyl-4-[4-[4-(methylsulfonyl)piperazin-1-yl]butyl]-2,5-dioxo-1H-pyrrol-1-yl]-2-(trifluoromethyl)benzonitrile]	–	–	103 ± 10	94 ± 4	–	100 ± 5	–	104 ± 6	–	–	–	–	57	36	considerable growth inhibition	superior in comparison to treatment with the antiandrogen bicalutamide	considerable growth inhibition	superior in comparison to treatment with the antiandrogen bicalutamide
